In brackets after ≈: the same amount, converted by molar mass. Like-named read-outs stand apart in the source and are kept apart here. Blank lines part the entries; values can stand above or below the compound they belong to.
Legend:
Candida tropicalis = assay: Broth microdilution antifungal MIC (NCCLS); assay type: cell-based; conditions: RPMI-1640, 35° C., 24-48 hours
Procedure: (§1) The antifungal activity of Hygroscopene A is determined by a broth microdilution method as recommended by the National Committee for Clinical Laboratory Standard (NCCLS) (1, 2). Sterile, disposable, multiwell plates (96 U-shaped wells) containing serial dilutions of Hygroscopene A and a control drug (Amphotericin B) are prepared in a 100 μl volume with RPMI-1640 broth supplemented with 0.2% sodium bicarbonate and […] [3-(N-morpholino) propanesulfonic acid] buffer. RPMI-1640 is a completely synthetic medium that supports the growth of most fungi. Antimicrobial agent concentrations ranged from 0.06-64 μg/ml. Five colonies from 24-hour old yeast culture or 48-hour old filamentous fungi culture were suspended in 0.85% saline. The suspensions are diluted in RPMI-1640 broth and inoculated in to plates (100 μl/well) containing antimicrobial agents. The final inocula of yeast or fungi are 0.5-2.5×10^3 CFU/ml and 0.4×10^4-5×10^4 CFU/ml respectively. Plates are incubated at 35° C. for 24-72 hours in ambient air. Hygroscopene A is tested against a panel of pathogenic yeast and filamentous fungi, which consisted of Candida sp. and Aspergillus sp. The yeast and fungal strains tested are clinical isolates or were purchased from American Type Culture Collection (ATCC) (Rockville, Md.). […] The MIC values for yeast are determined after 24-48 hours of incubation. For filamentous fungi, the MIC is determined after 72 hours of incubation.

Candida krussii = assay: Broth microdilution antifungal MIC (NCCLS); assay type: cell-based; conditions: Candida krussii 94-2, RPMI-1640, 35° C., 24-48 hours
Procedure: as §1

Candida pseudotropicalis = assay: Broth microdilution antifungal MIC (NCCLS); assay type: cell-based; conditions: Candida pseudotropicalis ATCC 28838, RPMI-1640, 35° C., 24-48 hours
Procedure: as §1

Aspergillus niger = assay: Broth microdilution antifungal MIC (NCCLS); assay type: cell-based; conditions: Aspergillus niger ATCC 26933, RPMI-1640, 35° C., 72 hours
Procedure: as §1

Candida parapsilosis = assay: Broth microdilution antifungal MIC (NCCLS); assay type: cell-based; conditions: RPMI-1640, 35° C., 24-48 hours
Procedure: as §1

Candida lustitaniae = assay: Broth microdilution antifungal MIC (NCCLS); assay type: cell-based; conditions: Candida lustitaniae 94-3, RPMI-1640, 35° C., 24-48 hours
Procedure: as §1

Candida rugosa = assay: Broth microdilution antifungal MIC (NCCLS); assay type: cell-based; conditions: Candida rugosa 94-10, RPMI-1640, 35° C., 24-48 hours
Procedure: as §1

Candida albicans = assay: Broth microdilution antifungal MIC (NCCLS); assay type: cell-based; conditions: RPMI-1640, 35° C., 24-48 hours
Procedure: as §1

Aspergillus fumigatus = assay: Broth microdilution antifungal MIC (NCCLS); assay type: cell-based; conditions: Aspergillus fumigatus S-430; RPMI-1640, 35° C., 72 hours
Procedure: as §1

[1] = Solubility (physico-chemical properties); assay type: physicochemical; conditions: solvents MeOH, EtOH, DMSO

MIC (Candida tropicalis; Candida tropicalis 94-13): 0.25 µg/mL (≈ 0.271 µM)
MIC (Candida tropicalis; Candida tropicalis 94-14): 0.25 µg/mL (≈ 0.271 µM)
MIC (Candida krussii): 0.50 µg/mL (≈ 0.541 µM)
MIC (Candida pseudotropicalis): 0.25 µg/mL (≈ 0.271 µM)
MIC (Aspergillus niger): 0.50 µg/mL (≈ 0.541 µM)
MIC (Candida parapsilosis; Candida parapsilosis 94-8): 0.25 µg/mL (≈ 0.271 µM)
MIC (Candida parapsilosis; Candida parapsilosis 94-9): 0.25 µg/mL (≈ 0.271 µM)
MIC (Candida parapsilosis; Candida parapsilosis ATCC 90018): 0.25 µg/mL (≈ 0.271 µM)
MIC (Candida lustitaniae): 0.125 µg/mL (≈ 0.135 µM)
MIC (Candida rugosa): 0.50 µg/mL (≈ 0.541 µM)
MIC (Candida albicans; Candida albicans 1063): 0.125 µg/mL (≈ 0.135 µM)
MIC (Candida albicans; Candida albicans 1117): 0.125 µg/mL (≈ 0.135 µM)
MIC (Candida albicans; Candida albicans ATCC 90028): 0.25 µg/mL (≈ 0.271 µM)
Compound: C[C@@H]1[C@H](O)[C@@H](C)/C=C/C=C/C=C/C=C/C=C/C=C/C=C/[C@H](O[C@@H]2O[C@H](C)[C@@H](O)[C@H](N)[C@@H]2O)C[C@@H]2O[C@](O)(C[C@@H](O)C[C@@H](O)[C@H](O)CC[C@@H](O)C[C@@H](O)CC(=O)O[C@H]1C)C[C@H](O)[C@H]2C(=O)O [Amphotericin B, reference compound]

MIC (Candida tropicalis; Candida tropicalis 94-13, read-out: MIC): 1 µg/mL (≈ 0.821 µM)
MIC (Candida tropicalis; Candida tropicalis 94-14): 1.0 µg/mL (≈ 0.821 µM)
MIC (Candida krussii; read-out: MIC): 1 µg/mL (≈ 0.821 µM)
MIC (Candida pseudotropicalis; Kluyveromyces marxianus, ATCC28838, read-out: MIC): 2 µg/mL (≈ 1.64 µM)
MIC (Aspergillus niger; ATCC26933, read-out: MIC): 8 µg/mL (≈ 6.57 µM)
MIC (Candida parapsilosis; Candida parapsilosis 94-9): 2.0 µg/mL (≈ 1.64 µM)
MIC (Candida parapsilosis; Lodderomyces parapsilosis, ATCC90018, Candida parapsilosis ATCC 90018, read-out: MIC): 2 µg/mL (≈ 1.64 µM)
MIC (Candida parapsilosis; Lodderomyces parapsilosis, Candida parapsilosis 94-8, read-out: MIC): 2 µg/mL (≈ 1.64 µM)
MIC (Candida lustitaniae; read-out: MIC): 1 µg/mL (≈ 0.821 µM)
MIC (Candida rugosa; Diutina rugosa, read-out: MIC): 1 µg/mL (≈ 0.821 µM)
MIC (Candida albicans; Candida albicans, ATCC90028, Candida albicans ATCC 90028, read-out: MIC): 2 µg/mL (≈ 1.64 µM)
MIC (Candida albicans; Candida albicans, Candida albicans 1063, read-out: MIC): 2 µg/mL (≈ 1.64 µM)
MIC (Candida albicans; Candida albicans, Candida albicans 1117, read-out: MIC): 1 µg/mL (≈ 0.821 µM)
MIC (Aspergillus fumigatus): 2 µg/mL (≈ 1.64 µM)
Solubility [1]: Soluble in MeOH, EtOH, DMSO
Compound: C\C(=C/C=C/C=C/CC/C=C/C(C)C(O)C(C)C(O)/C=C/C=C/C=C/C=C/C=C/C=C/CC(OS(=O)(=O)O)C(C)C(=O)CC(O)CC(O)/C=C/CC(O)CC(O)/C=C/CC(O)CC(O)CC(O)/C=C/CC(O)CC(O)CCCNC(=N)N)C(=O)O (stereo not drawn) [Hygroscopene A]

Solubility [1]: Soluble in MeOH, EtOH, DMSO
Compound: C\C(=C/C=C/C=C/CC/C=C/C(C)C(O)C(C)C(O)/C=C/C=C/C=C/C=C/C=C/C=C/CC(OS(=O)(=O)O)C(C)C(=O)CC(O)CC(O)/C=C/CC(O)CC(O)/C=C/CC(O)CC(O)CC(O)/C=C/CC(O)CC(O)CCCN)C(=O)O (stereo not drawn) [Hygroscopene B]

Solubility [1]: Soluble in MeOH, EtOH, DMSO
Compound: C\C(=C/C=C/C=C/CC/C=C/C(C)C(O)C(C)C(O)/C=C/C=C/C=C/C=C/C=C/C=C/CC(O)C(C)C(=O)CC(O)CC(O)/C=C/CC(O)CC(O)/C=C/CC(O)CC(O)CC(O)/C=C/CC(O)CC(O)CCCN)C(=O)O (stereo not drawn) [Hygroscopene C]

Source: patent US20040138302A1, “Antifungal antibiotics” (Wyeth Holdings Corporation, priority 2002, published 2004)
